The values below come from patent US20260327204A1, “DEGRADERS OF CYCLIN-DEPENDENT KINASE 12/13, COMPOSITIONS, AND USES THEREOF” (ZHEJIANG UNIVERSITY, priority 2023, published 2026).

One test concerns the target CDK12 (Homo sapiens, UniProt Q9NYV4). Nature of the test: Western blot degradation of CDK12 (Example 2). The test is classed as cell-based. On the set-up: degradation of CDK12/13 protein in leukemia cells KASUMI-1, MV4-11, and Jurkat; endogenous in cells. The following applies: DC50 classes, cell line not given; for DC50: read-out: CDK12 degradation Activity. As for the experimental part:
(§1) Western blot was used to determine the degradation of CDK12/13 protein in leukemia cells KASUMI-1, MV4-11, and Jurkat. The two compounds with the best degradation effects were further validated for their ability to degrade CDK12/13 protein in breast cancer cells MDA-MB-231 using a concentration gradient.
(§2) • Cell lines: KASUMI-1, MV4-11, Jurkat, or MDA-MB-231 • Culture medium: DMEM/RIPM-1640+10% Hyclone serum • Compound dissolution method: Compounds were dissolved in DMSO to prepare a 50 mM stock solution, and then diluted to the corresponding concentrations.
(§3) (1) In vitro cell culture: The selected cells were cultured in a 37 °C constant temperature incubator with 5% CO2. Once the cell density reached 70-90%, they were passaged for subsequent experiments.
(§4) (2) Cell seeding: Cells were digested, and the cell suspension was transferred to a 1.5 mL Eppendorf tube. After centrifugation at 1,000 rpm for 5 min, the cells were resuspended in 2 mL of culture medium and counted. The cell suspension was seeded in a 24-well plate at a density of 200,000 cells per well and allowed to adhere for 8-12 h.
(§5) (3) Compound treatment: The 50 mM compound stock solution was diluted with cell culture medium to a final concentration of 0.01 μM-3 μM. Cells were incubated in a 37 °C incubator with 5% CO2 for 3 h-48 h. The DMSO group served as the negative control.
(§6) At the end of the treatment time, the cells were collected and washed once with PBS. An appropriate volume of 4% SDS was added to lyse the cells, and the mixture was sonicated until no longer viscous. After centrifugation at 12,000 rpm at room temperature for 30 min, the supernatant was transferred to a new EP tube for protein quantification.
(§7) The exposure results were quantitatively analyzed using Image J software. First, the grayscale values of the bands were calculated using Image J. Then, the grayscale value of the target protein was divided by the grayscale value of the internal reference protein for normalization. The calculation formula is: […]
(§8) Where A is the grayscale value and D is the degradation rate.
(§9) In the figures, CDK12 and CDK13 are the target proteins under study, and β-Actin and GAPDH are the internal reference proteins. Internal reference proteins are used to indicate the total protein amount in each experimental group for quantitative analysis.

A further test addresses CDK13 (Homo sapiens, UniProt Q14004). Nature of the test: Western blot degradation of CDK13 (Example 2). It is filed as cell-based. On the set-up: degradation of CDK12/13 protein in leukemia cells KASUMI-1, MV4-11, and Jurkat; endogenous in cells. The following applies: DC50 classes, cell line not given; for DC50: read-out: CDK13 degradation Activity. The protocol:
as §1, §2, §3, §4, §5, §6, §7, §8, §9

Sequence of CDK12 (Q9NYV4 whole entry): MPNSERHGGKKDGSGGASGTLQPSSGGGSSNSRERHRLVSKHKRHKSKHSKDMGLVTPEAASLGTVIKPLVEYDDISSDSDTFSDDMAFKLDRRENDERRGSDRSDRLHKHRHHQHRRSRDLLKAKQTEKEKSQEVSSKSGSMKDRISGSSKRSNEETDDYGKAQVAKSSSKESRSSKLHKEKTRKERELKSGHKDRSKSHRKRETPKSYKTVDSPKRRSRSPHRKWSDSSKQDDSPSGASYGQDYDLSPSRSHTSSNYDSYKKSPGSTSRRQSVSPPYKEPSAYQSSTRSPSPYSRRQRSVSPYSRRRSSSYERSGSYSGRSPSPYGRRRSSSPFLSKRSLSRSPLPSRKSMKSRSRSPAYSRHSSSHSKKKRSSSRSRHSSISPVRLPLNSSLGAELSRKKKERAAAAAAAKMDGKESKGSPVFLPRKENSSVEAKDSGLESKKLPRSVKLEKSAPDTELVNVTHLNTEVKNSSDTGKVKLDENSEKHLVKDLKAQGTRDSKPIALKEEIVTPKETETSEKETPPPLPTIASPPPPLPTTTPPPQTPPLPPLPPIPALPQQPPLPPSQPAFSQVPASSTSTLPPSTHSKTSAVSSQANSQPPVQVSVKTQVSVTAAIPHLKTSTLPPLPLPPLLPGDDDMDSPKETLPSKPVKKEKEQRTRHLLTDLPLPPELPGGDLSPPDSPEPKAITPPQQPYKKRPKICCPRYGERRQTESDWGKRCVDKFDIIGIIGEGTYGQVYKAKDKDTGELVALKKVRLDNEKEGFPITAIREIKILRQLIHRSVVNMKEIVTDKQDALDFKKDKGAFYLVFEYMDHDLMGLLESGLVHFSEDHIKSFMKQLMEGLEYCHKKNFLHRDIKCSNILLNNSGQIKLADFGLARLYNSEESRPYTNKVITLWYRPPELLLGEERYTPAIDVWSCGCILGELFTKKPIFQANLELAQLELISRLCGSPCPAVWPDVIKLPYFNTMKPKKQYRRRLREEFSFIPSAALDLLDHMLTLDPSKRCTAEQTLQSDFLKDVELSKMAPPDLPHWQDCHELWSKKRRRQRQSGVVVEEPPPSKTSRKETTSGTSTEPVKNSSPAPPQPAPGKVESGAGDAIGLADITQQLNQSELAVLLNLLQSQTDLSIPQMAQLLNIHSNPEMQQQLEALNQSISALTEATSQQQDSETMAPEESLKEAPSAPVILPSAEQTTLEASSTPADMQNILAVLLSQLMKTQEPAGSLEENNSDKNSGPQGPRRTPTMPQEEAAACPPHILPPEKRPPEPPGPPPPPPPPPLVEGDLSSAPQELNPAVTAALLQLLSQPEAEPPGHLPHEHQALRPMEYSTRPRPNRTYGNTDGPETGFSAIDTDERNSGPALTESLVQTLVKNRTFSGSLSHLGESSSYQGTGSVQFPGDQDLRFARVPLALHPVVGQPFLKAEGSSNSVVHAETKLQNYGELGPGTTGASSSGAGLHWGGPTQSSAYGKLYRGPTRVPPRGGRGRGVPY
Sequence of CDK12 (O75909 whole entry partner): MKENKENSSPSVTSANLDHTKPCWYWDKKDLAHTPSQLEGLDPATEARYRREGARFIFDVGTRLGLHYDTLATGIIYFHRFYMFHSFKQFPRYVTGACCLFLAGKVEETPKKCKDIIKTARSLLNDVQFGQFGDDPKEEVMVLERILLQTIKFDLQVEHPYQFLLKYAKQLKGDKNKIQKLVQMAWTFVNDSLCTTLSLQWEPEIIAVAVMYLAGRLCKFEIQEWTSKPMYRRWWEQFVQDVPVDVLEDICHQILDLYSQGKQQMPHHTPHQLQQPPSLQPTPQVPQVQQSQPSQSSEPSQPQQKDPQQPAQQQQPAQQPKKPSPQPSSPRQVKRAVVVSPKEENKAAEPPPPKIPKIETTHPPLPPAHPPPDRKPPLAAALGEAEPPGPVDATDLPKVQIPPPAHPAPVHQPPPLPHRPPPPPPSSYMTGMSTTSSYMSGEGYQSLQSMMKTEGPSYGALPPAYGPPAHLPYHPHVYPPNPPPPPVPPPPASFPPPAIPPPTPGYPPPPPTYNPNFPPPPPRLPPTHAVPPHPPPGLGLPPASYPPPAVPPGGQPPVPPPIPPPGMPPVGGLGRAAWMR
Sequence of CDK13 (Q14004 whole entry): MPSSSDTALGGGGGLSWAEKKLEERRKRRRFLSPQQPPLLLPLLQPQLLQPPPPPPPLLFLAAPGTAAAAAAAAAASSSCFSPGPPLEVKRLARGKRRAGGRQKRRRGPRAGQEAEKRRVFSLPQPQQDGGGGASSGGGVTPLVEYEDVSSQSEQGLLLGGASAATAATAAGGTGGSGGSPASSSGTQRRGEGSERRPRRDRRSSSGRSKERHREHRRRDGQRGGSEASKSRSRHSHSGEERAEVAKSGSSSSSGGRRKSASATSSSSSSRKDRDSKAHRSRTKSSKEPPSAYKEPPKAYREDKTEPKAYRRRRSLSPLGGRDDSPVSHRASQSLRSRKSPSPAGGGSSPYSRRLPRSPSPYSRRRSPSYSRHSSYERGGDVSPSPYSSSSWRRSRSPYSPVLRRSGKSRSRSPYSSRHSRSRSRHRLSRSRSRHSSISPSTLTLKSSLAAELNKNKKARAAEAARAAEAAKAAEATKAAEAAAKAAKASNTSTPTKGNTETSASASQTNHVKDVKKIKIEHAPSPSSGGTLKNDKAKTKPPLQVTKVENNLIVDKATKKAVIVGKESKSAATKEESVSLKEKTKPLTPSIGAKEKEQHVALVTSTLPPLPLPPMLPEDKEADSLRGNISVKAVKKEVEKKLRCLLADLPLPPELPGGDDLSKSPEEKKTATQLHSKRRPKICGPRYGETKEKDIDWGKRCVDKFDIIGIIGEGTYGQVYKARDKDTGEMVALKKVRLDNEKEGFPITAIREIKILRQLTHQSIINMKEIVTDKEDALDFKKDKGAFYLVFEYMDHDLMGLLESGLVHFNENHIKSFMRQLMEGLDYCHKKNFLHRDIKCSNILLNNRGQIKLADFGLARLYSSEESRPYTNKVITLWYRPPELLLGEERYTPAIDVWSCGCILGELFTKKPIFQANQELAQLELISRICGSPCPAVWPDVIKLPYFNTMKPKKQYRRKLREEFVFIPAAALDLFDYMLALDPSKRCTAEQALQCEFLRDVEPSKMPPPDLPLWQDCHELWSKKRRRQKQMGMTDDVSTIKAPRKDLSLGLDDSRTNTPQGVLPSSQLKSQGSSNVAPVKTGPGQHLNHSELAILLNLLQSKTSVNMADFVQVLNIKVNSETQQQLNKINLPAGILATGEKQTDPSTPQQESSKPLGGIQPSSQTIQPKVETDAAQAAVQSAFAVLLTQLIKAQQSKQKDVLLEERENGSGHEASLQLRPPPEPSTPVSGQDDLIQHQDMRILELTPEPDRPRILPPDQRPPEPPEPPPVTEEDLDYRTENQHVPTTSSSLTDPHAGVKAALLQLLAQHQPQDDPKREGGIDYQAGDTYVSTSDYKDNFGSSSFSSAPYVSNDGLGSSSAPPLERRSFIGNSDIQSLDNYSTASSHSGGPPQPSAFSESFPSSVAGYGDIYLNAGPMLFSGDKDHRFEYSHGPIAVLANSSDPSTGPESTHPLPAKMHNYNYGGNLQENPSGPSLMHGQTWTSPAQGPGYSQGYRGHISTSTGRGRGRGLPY
Sequence of CDK13 (O75909 whole entry partner): as the sequence (O75909 whole entry partner) above

Consider `Cc1ncsc1-c1ccc([C@H](C)NC(=O)[C@@H]2C[C@@H](O)CN2C(=O)[C@@H](NC(=O)CC2CCN(c3ccc(-c4ccc(N(C(=O)NCc5ccccc5)[C@H]5CC[C@H](Nc6ccc(C#N)cn6)CC5)cc4)cn3)C2)C(C)(C)C)cc1` (stereo partly drawn) [Formula 30], for which the values for the DC50 at CDK12 and at CDK13 were 0.5 to 1 µM and 500 to 1000 nM, respectively.
In the same order, the values of `Cc1ncsc1-c1ccc([C@H](C)NC(=O)[C@@H]2C[C@@H](O)CN2C(=O)[C@@H](NC(=O)CC#CCCOc2ccc(-c3ccc(N(C(=O)NCc4ccccc4)[C@H]4CC[C@H](Nc5ccc(C#N)cn5)CC4)cc3)cn2)C(C)(C)C)cc1` [Formula 13] are 3 to 10 µM and 3000 to 10000 nM.
In the same order, the values of `CCNC(=O)N(c1ccc(-c2ccc(N3CCN(CC(=O)N[C@H](C(=O)N4C[C@H](O)C[C@H]4C(=O)N[C@@H](C)c4ccc(-c5scnc5C)cc4)C(C)(C)C)CC3)nc2)cc1)[C@H]1CC[C@H](Nc2ccc(C#N)cn2)CC1` [Formula 44] are 0.5 to 1 µM and 100 to 500 nM.
In the same order, the values of `Cc1ncsc1-c1ccc([C@H](C)NC(=O)[C@@H]2C[C@@H](O)CN2C(=O)[C@@H](NC(=O)COc2ccc(-c3ccc(N(C(=O)NCc4ccccc4)[C@H]4CC[C@H](Nc5ccc(C#N)cn5)CC4)cc3)cn2)C(C)(C)C)cc1` [Formula 6] are 1 to 3 µM and 500 to 1000 nM.
Take `N#Cc1ccc(N[C@H]2CC[C@H](N(C(=O)NCc3ccccc3)c3ccc(-c4ccc(=O)n(CCOCCOCCOCCNc5cccc6c5C(=O)N(C5CCC(=O)NC5=O)C6=O)c4)cc3)CC2)nc1` (stereo partly drawn) [Formula 48]: the DC50 on CDK12 was in the range of 3 to 10 µM. The “CDK13 degradation Activity” value on CDK13 is on record as “−”.
For the molecule `Cc1ncsc1-c1ccc([C@H](C)NC(=O)[C@@H]2C[C@@H](O)CN2C(=O)[C@@H](NC(=O)CC#Cc2ccc(-c3ccc(N(C(=O)NCc4ccccc4)[C@H]4CC[C@H](Nc5ccc(C#N)cn5)CC4)cc3)cn2)C(C)(C)C)cc1` [Formula 15], on CDK12, the “CDK12 degradation Activity” value is given as “−”. For the same molecule, at CDK13, the “CDK13 degradation Activity” value is on record as “−”.
For `Cc1ncsc1-c1ccc([C@H](C)NC(=O)[C@@H]2C[C@@H](O)CN2C(=O)[C@@H](NC(=O)Cn2cc(-c3ccc(N(C(=O)NCc4ccccc4)[C@H]4CC[C@H](Nc5ncc(C#N)cn5)CC4)cc3)ccc2=O)C(C)(C)C)cc1` [Formula 61], the “CDK12 degradation Activity” value at CDK12 was “−”. Moreover, the “CDK13 degradation Activity” value on CDK13 is on record as “−”.
In the case of `N#Cc1ccc(N[C@H]2CC[C@H](N(C(=O)NCc3ccccc3)c3ccc(N4CCN(CCOCCOCCOCCOCCNc5cccc6c5C(=O)N(C5CCC(=O)NC5=O)C6=O)CC4)cc3)CC2)nc1` (stereo partly drawn) [Formula 41], the DC50 on CDK12 is 1 to 3 µM; on CDK13, 1000 to 3000 nM.
In the case of `Cc1ncsc1-c1ccc([C@H](C)NC(=O)[C@@H]2C[C@@H](O)CN2C(=O)[C@@H](NC(=O)COCCOCCOCCOCCOc2ccc(-c3ccc(N(C(=O)NCc4ccccc4)[C@H]4CC[C@H](Nc5ccc(C#N)cn5)CC4)cc3)cn2)C(C)(C)C)cc1` [Formula 4], the DC50 at CDK12 was in the range of 3 to 10 µM; on CDK13, 3000 to 10000 nM.
In the same order, the values of `Cc1ncsc1-c1ccc([C@H](C)NC(=O)[C@@H]2C[C@@H](O)CN2C(=O)[C@@H](NC(=O)COCCOCCOCCOCCOCCn2cc(-c3ccc(N(C(=O)NCc4ccccc4)[C@H]4CC[C@H](Nc5ccc(C#N)cn5)CC4)cc3)ccc2=O)C(C)(C)C)cc1` [Formula 60] are 1 to 3 µM and 500 to 1000 nM.
As to `N#Cc1ccc(N[C@H]2CC[C@H](N(C(=O)NCc3ccccc3)c3ccc(-c4ccc(OCCOCCNc5cccc6c5C(=O)N(C5CCC(=O)NC5=O)C6=O)nc4)cc3)CC2)nc1` (stereo partly drawn) [Formula 32], the results for the DC50 on CDK12 and at CDK13 were 1 to 3 µM and 500 to 1000 nM, respectively.
The matching figures for `Cc1ncsc1-c1ccc([C@H](C)NC(=O)[C@@H]2C[C@@H](O)CN2C(=O)[C@@H](NC(=O)COCCN2CCN(c3ccc(N(C(=O)NCc4ccccc4)[C@H]4CC[C@H](Nc5ccc(C#N)cn5)CC4)cc3)CC2)C(C)(C)C)cc1` [Formula 7]: 1 to 3 µM and 3000 to 10000 nM.
As to `Cc1ncsc1-c1ccc([C@H](C)NC(=O)[C@@H]2C[C@@H](O)CN2C(=O)[C@@H](NC(=O)C2CC3(CC(Nc4ccc(-c5ccc(N(C(=O)NCc6ccccc6)[C@H]6CC[C@H](Nc7ccc(C#N)cn7)CC6)cc5)cn4)C3)C2)C(C)(C)C)cc1` (stereo partly drawn) [Formula 28], the DC50 at CDK12 was 3 to 10 µM; on CDK13 it was 3000 to 10000 nM.
Regarding `Cc1ncsc1-c1ccc([C@H](C)NC(=O)[C@@H]2C[C@@H](O)CN2C(=O)[C@@H](NC(=O)N2CC3(CCN(c4ccc(N(C(=O)NCc5ccccc5)[C@H]5CC[C@H](Nc6ccc(C#N)cn6)CC5)cc4)CC3)C2)C(C)(C)C)cc1` [Formula 55], the “CDK12 degradation Activity” value at CDK12 is on record as “−”. Also, on CDK13, the “CDK13 degradation Activity” value is reported as “−”.
In the case of `Cc1ncsc1-c1ccc([C@H](C)NC(=O)[C@@H]2C[C@@H](O)CN2C(=O)[C@@H](NC(=O)CN2CCN(c3ncc(-c4ccc(N(C(=O)NCc5ccccc5)[C@H]5CC[C@H](Nc6ccc(C#N)cn6)CC5)cc4)cn3)CC2)C(C)(C)C)cc1` [Formula 80], the DC50 on CDK12 is below 0.1 µM; at CDK13 it was below 100 nM.
Consider `Cc1ncsc1-c1ccc([C@H](C)NC(=O)[C@@H]2C[C@@H](O)CN2C(=O)[C@@H](NC(=O)CN2CC(Oc3ccc(-c4ccc(N(C(=O)NCc5ccccc5)[C@H]5CC[C@H](Nc6ccc(C#N)cn6)CC5)cc4)cn3)C2)C(C)(C)C)cc1` [Formula 14], for which the DC50 at CDK12 was 3 to 10 µM. For the same molecule, the “CDK13 degradation Activity” value on CDK13 is “−”.
With `CCNC(=O)N(c1ccc(-c2ccc(OCCOCCOCCOCCNc3cccc4c3C(=O)N(C3CCC(=O)NC3=O)C4=O)nc2)cc1)[C@H]1CC[C@H](Nc2ccc(C#N)cn2)CC1` (stereo partly drawn) [Formula 43], the DC50 on CDK12 is 1 to 3 µM; at CDK13 it was 1000 to 3000 nM.
In the case of `Cc1ncsc1-c1ccc([C@H](C)NC(=O)[C@@H]2C[C@@H](O)CN2C(=O)[C@@H](NC(=O)CN2CCN(c3ncc(-c4ccc(N(C(=O)NCc5ccccc5)[C@H]5CC[C@H](Nc6ccc(C#N)cn6)CC5)cc4)cn3)CC2)C(C)(C)C)cc1` (racemic) [Formula 81], the DC50 at CDK12 is below 0.1 µM; at CDK13 it was below 100 nM.
In the same order, the values of `Cc1ncsc1-c1ccc([C@H](C)NC(=O)[C@@H]2C[C@@H](O)CN2C(=O)[C@@H](NC(=O)CN2CCN(c3ncc(-c4ccc(N(C(=O)NCc5ccccc5)[C@H]5CC[C@H](Nc6ccc(C#N)cn6)CC5)cc4)cn3)CC2)C(C)(C)C)cc1` [Formula 83] are below 0.1 µM and below 100 nM.
In the same order, the values of `Cc1ncsc1-c1ccc([C@H](C)NC(=O)[C@@H]2C[C@@H](O)CN2C(=O)[C@@H](NC(=O)N2CCN(c3ccc(N(C(=O)NCc4ccccc4)[C@H]4CC[C@H](Nc5ncc6ccccc6n5)CC4)cc3)CC2)C(C)(C)C)cc1` [Formula 53] are 3 to 10 µM and 1000 to 3000 nM.
Take `Cc1ncsc1-c1ccc([C@H](C)NC(=O)[C@@H]2C[C@@H](O)CN2C(=O)[C@@H](NC(=O)COCCOCCOCCOc2ccc(-c3ccc(N(C(=O)NCc4ccccc4)[C@H]4CC[C@H](Nc5ccc(C#N)cn5)CC4)cc3)cn2)C(C)(C)C)cc1` [Formula 3]: the DC50 on CDK12 lay within 3 to 10 µM; on CDK13 it was 3000 to 10000 nM.
In the same order, the values of `Cc1ncsc1-c1ccc([C@H](C)NC(=O)[C@@H]2C[C@@H](O)CN2C(=O)[C@@H](NC(=O)N2CCC3(CC2)CCN(c2ccc(N(C(=O)NCc4ccccc4)[C@H]4CC[C@H](Nc5ccc(C#N)cn5)CC4)cc2)CC3)C(C)(C)C)cc1` [Formula 51] are 3 to 10 µM and 3000 to 10000 nM.
Take `Cc1ncsc1-c1ccc([C@H](C)NC(=O)[C@@H]2C[C@@H](O)CN2C(=O)[C@@H](NC(=O)CN2CCN(c3ccc(-c4ccc(N(C(=O)NCc5ccccc5)[C@H]5CC[C@H](Nc6ccc(C#N)cn6)CC5)cc4)cn3)CC2)C(C)(C)C)cc1` (racemic) [Formula 73]: the DC50 on CDK12 is below 0.1 µM; at CDK13, below 100 nM.
For the molecule `Cc1ncsc1-c1ccc([C@H](C)NC(=O)[C@@H]2C[C@@H](O)CN2C(=O)[C@@H](NC(=O)C2CCN(C(=O)C3CCN(c4ccc(N(C(=O)NCc5ccccc5)[C@H]5CC[C@H](Nc6ccc(C#N)cn6)CC5)cc4)CC3)CC2)C(C)(C)C)cc1` [Formula 22], the “CDK12 degradation Activity” value on CDK12 was “−”. In addition, on CDK13, the “CDK13 degradation Activity” value is reported as “−”.
